Data reported in publication PMC8000724, “Trans-Epithelial Transport, Metabolism, and Biological Activity Assessment of the Multi-Target Lupin Peptide [sequence] (P5) and Its Metabolite [sequence] (P5-Met)” (Nutrients, 2021).
Read-outs that look alike come from different tables or passages of the source.

Columns and labels:
[1] = system: differentiated Caco-2 cells; details: cited from earlier work
Experimental: From a physiological point of view, the dynamic equilibrium between the transport and degradation of bioactive peptides is crucially important. […] Indeed, the transport is more efficient and its degradation less extensive when P5 is incubated in the presence of peptides P3 and P7. It is important to note, however, that P5 and P7 have completely different behaviors, since the transport rate of P5 tested alone is 1.8 ...

[2] = system: LDLR on HepG2 cell surface; experiment: In-cell Western (ICW) assay, LDLR localized on HepG2 cell surface; assay type: cell-based, human; details: PCSK9 alone 4 µg/mL, 2 h, mean ± SD
Experimental: For the experiments, a total of 3 × 10^4 HepG2 cells/well were seeded in 96-well plates. The following day, cells were washed with PBS and then starved overnight (O/N) in DMEM without FBS and antibiotics. After starvation, HepG2 cells were treated with 4.0 μg/mL PCSK9-WT and 4.0 μg/mL PCSK9 + peptides P5 and/or P5-met (50 µM) and vehicle (H2O) for 2 h at 37 °C under 5% CO2 atmosphere. Subsequently, they were fixed in 4% paraformaldehyde for 20 min at room temperature (RT). Cells were washed 5 times with 100 µL of PBS/well (each wash was for 5 min at RT) and the endogenous peroxides activity quenched adding 3% H2O2 for 20 min at RT. Non-specific sites were blocked with 100 µL/well of 5% bovine serum albumin (BSA, Sigma) in PBS for 1.5 h at RT. LDLR primary antibody solution (1:3000 in 5% BSA in PBS, 25 µL/well) was incubated O/N at +4 °C. Subsequently, the primary antibody solution was discarded and each sample was washed 5 times with 100 µL/well of PBS (each wash was for 5 min at RT). Goat anti-rabbit Ig-HRP secondary antibody solution (Santa Cruz) (1:6000 in 5% BSA in PBS, 50 µL/well), was added and incubated 1 h at RT. The secondary antibody solution was washed 5 times with 100 µL/well of PBS (each wash for 5 min at RT). Freshly prepared TMB substrate (Pierce, 100 µL/well) was added and the plate was incubated at RT until desired color was developed. The reaction was stopped with 2 M H2SO4 and then the absorbance at 450 nm was measured using the microplate reader Synergy H1 (Winooski, VT, USA). After the read, cells were stained by adding 1× Janus Green stain, incubating for 5 min at RT. The dye was removed and the sample washed 5 times with water. Afterward 100 µL 0.5 M HCl for well were added and incubated for 10 min. After 10 seconds shaking, the OD at 595 nm was measured using the microplate reader Synergy H1 (Winooski, VT, USA).

HepG2 cells = experiment: Fluorescent LDL uptake by HepG2 cells; assay type: cell-based, human; details: PCSK9 alone 4 µg/mL, 2 h; mean ± SD
Experimental: HepG2 cells (3 × 10^4/well) were seeded in 96-well plates and kept in complete growth medium for 2 days before treatment. The third day, cells were washed with PBS and then starved overnight (O/N) in DMEM without FBS and antibiotics. After starvation, they were treated with 4.0 μg/mL PCSK9 and 4.0 μg/mL PCSK9 + P5 and P5-met peptides (50.0 µM), and vehicle (H2O) for 2 h with at 37 °C under 5% CO2 atmosphere. At the end of the treatment, the culture medium was replaced with 50 μL/well LDL-DyLight™ 550 working solution (Cayman Chemical Company, Ann Arbor, MI, USA) prepared in DMEM without FBS and antibiotics. The cells were additionally incubated for 2 h at 37 °C and then the culture medium was aspirated and replaced with PBS (100 μL/well). The degree of LDL uptake was measured using the Synergy H1 fluorescent plate reader (Winooski, VT, USA) (excitation and emission wavelengths 540 and 570 nm, respectively). Fluorescent LDL-uptake was finally assessed following optimized protocol.

Substance	Transport rate across Caco-2 monolayer ([1]; in mixture)	Transport rate across Caco-2 monolayer ([1]; tested alone)	Decrease of LDLR protein levels on HepG2 cell surface versus the control cells [2] [%]	Reduction of ability of HepG2 cells to uptake fluorescent LDL versus untreated cells (HepG2 cells) [%]
LTFPGSAED [Peptide P7, lupin peptide used in mixture with P5 in the transport experiments]	1.98 ± 0.21 ng/(mL × min)	4.2 ± 0.6 ng/(mL × min)		
PCSK9: proprotein convertase subtilisin/kexin type-9 protein added to HepG2 cells at 4.0 μg/mL			24.7 ± 1.9	43.5 ± 9.7
